Columns and labels:
VEGFR-2 (KDR) = target: T1, VEGFR-2 (KDR) (Homo sapiens, UniProt P35968); experiment: In vitro VEGFR-2 tyrosine kinase activity (Kinase-Glo Plus luminescence, BPS Bioscience); format: biochemical; conditions: for inhibition at 10 µM: single dose concentration of 10 μM; for IC50: 5 concentrations 1 nM - 10 μM
T1 construct: purchased BPS Bioscience 40301

[1] = test system: HUVEC umbilical vein endothelial cells; experiment: In vitro HUVEC anti-proliferative assay (alamarBlue); format: cell-based; conditions: Homo sapiens, HUVEC proliferation at 10 μM, 72 hours; for activity at 10 µM: read-out: % Cell growth; for inhibition at 10 µM: read-out: % Cell inhibition

T1 sequence (P35968 20-1356): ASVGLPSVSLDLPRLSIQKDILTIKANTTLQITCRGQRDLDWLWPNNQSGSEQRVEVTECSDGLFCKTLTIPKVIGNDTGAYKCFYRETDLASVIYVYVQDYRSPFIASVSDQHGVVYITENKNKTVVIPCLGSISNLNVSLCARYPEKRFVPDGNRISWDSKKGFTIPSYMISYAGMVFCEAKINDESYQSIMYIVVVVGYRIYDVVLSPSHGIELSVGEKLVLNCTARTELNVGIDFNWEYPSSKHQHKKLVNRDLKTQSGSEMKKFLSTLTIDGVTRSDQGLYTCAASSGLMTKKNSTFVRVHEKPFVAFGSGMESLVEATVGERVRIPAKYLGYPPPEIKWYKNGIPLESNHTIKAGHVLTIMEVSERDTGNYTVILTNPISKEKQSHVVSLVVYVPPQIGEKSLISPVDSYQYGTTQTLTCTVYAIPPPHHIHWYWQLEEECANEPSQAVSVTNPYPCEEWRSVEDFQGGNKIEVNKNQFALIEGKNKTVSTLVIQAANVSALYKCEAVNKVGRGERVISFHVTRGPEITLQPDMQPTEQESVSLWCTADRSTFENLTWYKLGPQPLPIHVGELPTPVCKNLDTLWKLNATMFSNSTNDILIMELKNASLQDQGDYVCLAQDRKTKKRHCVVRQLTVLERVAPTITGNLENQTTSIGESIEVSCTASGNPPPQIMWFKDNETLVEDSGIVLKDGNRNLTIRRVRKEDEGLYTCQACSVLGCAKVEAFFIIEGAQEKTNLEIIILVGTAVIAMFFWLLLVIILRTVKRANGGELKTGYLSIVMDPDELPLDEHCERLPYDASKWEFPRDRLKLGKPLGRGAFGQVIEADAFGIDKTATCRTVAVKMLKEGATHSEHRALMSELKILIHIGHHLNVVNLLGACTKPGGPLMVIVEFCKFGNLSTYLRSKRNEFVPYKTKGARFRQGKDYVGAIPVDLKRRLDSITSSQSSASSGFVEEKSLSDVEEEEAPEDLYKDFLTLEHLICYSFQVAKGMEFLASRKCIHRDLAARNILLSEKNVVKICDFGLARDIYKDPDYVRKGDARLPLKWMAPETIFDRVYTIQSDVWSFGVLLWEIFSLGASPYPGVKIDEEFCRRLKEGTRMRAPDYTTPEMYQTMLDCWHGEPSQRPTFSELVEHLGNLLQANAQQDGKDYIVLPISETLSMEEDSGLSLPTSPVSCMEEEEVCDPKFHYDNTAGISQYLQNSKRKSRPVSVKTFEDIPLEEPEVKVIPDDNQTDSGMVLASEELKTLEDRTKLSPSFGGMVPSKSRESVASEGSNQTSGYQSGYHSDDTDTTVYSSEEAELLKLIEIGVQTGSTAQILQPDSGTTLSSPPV

Row | inhibition at 10 µM (VEGFR-2 (KDR)) [%] | melting point [°C] | IC50 (VEGFR-2 (KDR)) [nM] | SMILES | activity at 10 µM [1] [%] | inhibition at 10 µM [1] [%]
1 | 27 | 183 to 185 |  | CCOC(=O)c1c(C)oc2ncnc(Oc3ccc(NC(=O)Nc4ccccc4)cc3)c12 [Compound 16a] |  | 
2 | > 70 | 116 to 119 | 1000 | CCOC(=O)c1c(C)oc2ncnc(Oc3ccc(NC(=O)Nc4cccc(C)c4)cc3)c12 [Compound 16b] | 73.3 | 26.6
3 |  |  | 551 | CCOC(=O)c1c(C)oc2ncnc(Oc3ccc(NC(=O)Nc4cccc(OC)c4)cc3)c12 [Compound 16c] | 32.1 | 67.9
4 | 40 | 215 to 219 |  | CCOC(=O)c1c(C)oc2ncnc(Oc3ccc(NC(=O)Nc4ccc(Cl)cc4)cc3)c12 [Compound 16d] |  | 
5 | 47 | > 250 |  | Cc1cccc(NC(=O)Nc2ccc(Nc3ncnc4sc5c(c34)CCCC5)cc2)c1 [Compound 20b] |  | 
6 | 32 | > 300 |  | O=C(Nc1ccc(Cl)cc1)Nc1ccc(Nc2ncnc3sc4c(c23)CCCC4)cc1 [Compound 20e] |  | 
7 | > 70 | > 300 |  | Cc1ccc(NC(=O)Nc2ccc(Nc3ncnc4sc5c(c34)CCCC5)cc2)cc1Cl [Compound 20f] |  | 
8 | > 70 | 265 to 269 | 1500 | CC(=O)c1cccc(NC(=O)Nc2ccc(Nc3ncnc4sc5c(c34)CCCC5)cc2)c1 [Compound 20g] | 29.2 | 70.8

The remaining lines, values behind:

Row | SMILES | inhibition at 10 µM (VEGFR-2 (KDR)) [%] | melting point [°C] | IC50 (VEGFR-2 (KDR)) [nM] | activity at 10 µM [1] [%] | inhibition at 10 µM [1] [%]
9 | CCOC(=O)c1c(C)oc2ncnc(Nc3ccc(NC(=O)c4cccc(Cl)c4)cc3)c12 [Compound 13a] | 8 | 232 to 236 |  |  | 
10 | CCOC(=O)c1c(C)oc2ncnc(Nc3ccc(NC(=O)c4ccc(Cl)cc4)cc3)c12 [Compound 13b] | 15 | > 250 |  |  | 
11 | CCOC(=O)c1c(C)oc2ncnc(Nc3ccc(C(=O)Nc4ccc(C)cc4)cc3)c12 [Compound 14c] | 14 | 235 to 238 |  |  | 
12 | CCOC(=O)c1c(C)oc2ncnc(Nc3ccc(C(=O)Nc4ccc(Cl)c(C(F)(F)F)c4)cc3)c12 [Compound 14d] | 14 | 238 to 240 |  |  | 
13 | CCOC(=O)c1c(C)oc2ncnc(Nc3ccc(NC(=O)Nc4ccccc4)cc3)c12 [Compound 15a] | 19 |  |  |  | 
14 | CCOC(=O)c1c(C)oc2ncnc(Nc3ccc(NC(=O)Nc4cccc(C)c4)cc3)c12 [Compound 15b] |  | > 250 | 946 | 0.5 | 99.5
15 | CCOC(=O)c1c(C)oc2ncnc(Nc3ccc(NC(=O)Nc4cccc(OC)c4)cc3)c12 [Compound 15c] | 62 | 220 to 222 |  |  | 
16 | CCOC(=O)c1c(C)oc2ncnc(Nc3ccc(NC(=O)Nc4ccc(Cl)cc4)cc3)c12 [Compound 15e] | 14 | 262 to 265 |  |  | 
17 | CCOC(=O)c1c(C)oc2ncnc(Nc3ccc(NC(=O)Nc4ccc(C)c(Cl)c4)cc3)c12 [Compound 15f] |  | 254 to 256 | 2100 | 97.7 | 2.32
18 | CCOC(=O)c1c(C)oc2ncnc(Nc3ccc(NC(=O)Nc4cccc(C(C)=O)c4)cc3)c12 [Compound 15g] | > 70 | 240 to 244 |  |  | 
19 | CCOC(=O)c1c(C)oc2ncnc(Nc3ccc(NC(=O)Nc4cccc(Br)c4)cc3)c12 [Compound 15h] | 45 | 224 to 228 |  |  | 

Source: article PMC4832243, “Discovery of Potent VEGFR-2 Inhibitors based on Furopyrimidine and Thienopyrimidne Scaffolds as Cancer Targeting Agents” (Scientific Reports, 2016)
